Measurements reported in patent US9301961B2, “Autoimmune and inflammatory disorder therapy” (Katholieke Universiteit Leuven, K.U. Leuven R&D, priority 2011, dated 2016).

Biological target: T1, YSK4 (h) (Homo sapiens, UniProt Q56UN5)
T1 construct: purchased Millipore
T1 sequence (Q56UN5 1-1328): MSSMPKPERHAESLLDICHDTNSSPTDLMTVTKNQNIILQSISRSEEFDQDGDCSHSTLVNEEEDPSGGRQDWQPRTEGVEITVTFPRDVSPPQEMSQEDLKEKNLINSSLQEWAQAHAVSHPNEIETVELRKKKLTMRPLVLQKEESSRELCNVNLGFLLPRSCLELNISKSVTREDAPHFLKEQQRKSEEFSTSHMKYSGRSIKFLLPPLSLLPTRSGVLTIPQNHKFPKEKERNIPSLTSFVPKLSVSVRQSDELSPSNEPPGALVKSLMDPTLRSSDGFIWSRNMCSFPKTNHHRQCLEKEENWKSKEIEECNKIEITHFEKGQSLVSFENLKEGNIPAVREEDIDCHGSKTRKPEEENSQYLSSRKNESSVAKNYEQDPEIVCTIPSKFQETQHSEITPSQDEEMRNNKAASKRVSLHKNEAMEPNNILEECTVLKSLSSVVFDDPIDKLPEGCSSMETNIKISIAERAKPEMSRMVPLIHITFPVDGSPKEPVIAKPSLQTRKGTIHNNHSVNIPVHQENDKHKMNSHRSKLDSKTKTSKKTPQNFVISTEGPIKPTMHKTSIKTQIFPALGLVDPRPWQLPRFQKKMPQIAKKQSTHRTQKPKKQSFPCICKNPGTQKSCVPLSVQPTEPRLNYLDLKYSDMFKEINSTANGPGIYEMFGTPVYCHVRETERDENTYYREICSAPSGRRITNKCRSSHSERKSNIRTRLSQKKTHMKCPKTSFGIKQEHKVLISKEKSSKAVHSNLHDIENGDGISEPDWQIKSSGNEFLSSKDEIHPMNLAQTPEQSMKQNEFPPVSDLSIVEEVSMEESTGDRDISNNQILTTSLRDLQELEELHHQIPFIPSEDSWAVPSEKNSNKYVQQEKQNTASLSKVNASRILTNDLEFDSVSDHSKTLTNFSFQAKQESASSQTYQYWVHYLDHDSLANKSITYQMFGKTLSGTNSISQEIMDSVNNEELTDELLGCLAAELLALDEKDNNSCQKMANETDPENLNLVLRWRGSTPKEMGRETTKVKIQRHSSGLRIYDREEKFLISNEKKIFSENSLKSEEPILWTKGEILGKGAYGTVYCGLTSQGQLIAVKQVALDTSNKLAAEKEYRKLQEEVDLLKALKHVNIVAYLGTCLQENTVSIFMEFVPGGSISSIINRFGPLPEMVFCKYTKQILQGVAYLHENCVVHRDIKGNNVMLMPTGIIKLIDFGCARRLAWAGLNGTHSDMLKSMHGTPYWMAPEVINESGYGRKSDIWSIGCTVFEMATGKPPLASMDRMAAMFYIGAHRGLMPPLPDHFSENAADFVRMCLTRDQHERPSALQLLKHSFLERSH
Assay: Commercial kinase activity assay (Millipore, 33P-ATP filter)
Format: biochemical
Conditions: 10 μM test compound
Description: LOK (h) was incubated with 8 mM MOPS pH 7.0, 0.2 mM EDTA, 250 μM […], 10 mM MgAcetate and [γ-^33P-ATP] (specific activity approx. 500 cpm/pmol, concentration as required). The reaction was initiated by the addition of the MgATP mix. After incubation for 40 minutes at room temperature, the reaction was stopped by the addition of 3% phosphoric acid solution. 10 μL of the reaction was then spotted onto a P30 filtermat and washed three times for 5 minutes in 75 mM phosphoric acid and once in methanol prior to drying and scintillation counting. PI3K p110β/p85α (h) PI3K (p110β/p85α) (h) was incubated in assay buffer containing 10 μM phosphatidylinositol-4,5-bisphosphate and MgATP (concentration as required). The reaction was initiated by the addition of the MgATP mix. After incubation for 30 minutes at room temperature, the reaction was stopped by the addition of stop solution containing EDTA and biotinylated phosphatidylinositol-3,4,5-trisphosphate. Finally, detection buffer was added, which contains europium-labelled anti-GST monoclonal antibody, GST-tagged GRP1 PH domain and streptavidinallophycocyanin. The plate was then read in time-resolved fluorescence mode and the homogenous time-resolved fluorescence (HTRF®) signal determined according to the formula HTRF=10000×(Em665nm/Em620 nm). YSK4 (h) YSK4 (h) was incubated with 8 mM MOPS pH 7.0, 0.2 mM EDTA, 250 […], 10 mM MgAcetate and [γ-^33P-ATP] (specific activity approx. 500 cpm/pmol, concentration as required). The reaction was initiated by the addition of the MgATP mix. After incubation for 40 minutes at room temperature, the reaction was stopped by the addition of 3% phosphoric acid solution. 10 μL of the reaction was then spotted onto a P30 filtermat and washed three times for 5 minutes in 75 mM phosphoric acid and once in methanol prior to drying and scintillation counting. PI4KA (PI4K alpha) The 2× PI4KA (PI4K alpha)/PI Lipid Kinase Substrate mixture was prepared in 20 mM Tris, pH 7.5, 0.4% Triton X-100, 5 mM MgCl2, 0.5 mM EGTA. The final 10 μL Kinase Reaction consisted of 75-300 ng PI4KA (PI4K alpha) and 100 μM PI Lipid Kinase Substrate in 7.5 mM HEPES, 10 mM Tris, pH 7.5, 0.2% Triton X-100, 2.5 mM MgCl2, 0.25 mM EGTA. After the 1 hour Kinase Reaction incubation, 5 μL of Detection Mix consisting of a europium labeled anti-ADP antibody, an Alexa Fluor® 647 labeled ADP tracer, and EDTA (to stop the kinase reaction) was added to the assay well. ADP formed by the kinase reaction (in the absence of an inhibitor) displaced the Alexa Fluor® 647 labeled ADP tracer from the antibody, resulting in a decrease in the TR-FRET signal. […] PI4KB (PI4K beta) The 2× PI4KB (PI4K beta)/PI Lipid Kinase Substrate mixture was prepared in 50 mM HEPES pH 7.5, 0.1% CHAPS, 1 mM EGTA, 4 mM MgCl2. […]

For `Nc1nc(N2CCN(C(=O)COc3ccc(Cl)cc3)CC2)c2nc(-c3cccnc3)sc2n1` [formula (1), 5-amino-7-[4-(4-chlorophenoxyacetyl)piperazin-1-yl]-2-(pyridin-3-yl)thiazolo[5,4-d]pyrimidine], the Kinase activity was 108 percentage of control.
